The values that follow come from patent US20200255838A1, “Selenium Cancer Therapy” (University of Massachusetts, priority 2017, published 2020).

Holding throughout (assay type): cell-based
The subject of experiment [1] is MDAMB468 and MDAMB231 cell lines. As to the kind of experiment: Hydrogen selenide gas toxicity assay. To be noted: gas from sodium selenide in 10% hydrochloric acid, 96-well plate. The procedure:
We developed a novel gas toxicity assay in which hydrogen selenide was produced in one well of a 96-well plate and the toxic effects were measured in an adjacent well. As described, SEPHS2 KO or control KO was achieved via pLENTICRISPR lentiviral transduction, and then cells were subjected to hydrogen selenide gas toxicity. Hydrogen selenide gas was formed by dissolving sodium selenide in an acidic (10% Hydrochloric Acid) solution in the central wells of a 96-well culture plate. SEPHS2 KO and CTRL cells (for MDAMB468 and MDAMB231 cell lines) were pre-seeded at various distances from the source of hydrogen gas toxicity (distances were equal under both conditions). The viability of each set of cells was averaged and relative viability of the SEPHS2 KO cells relative to control KO cells for each cell line are shown in FIG. 8.

Another experiment relates to GPX4 and SEPHS2. As to the kind of experiment: Selenoprotein expression after selenite supplementation of media. To be noted: selenite supplemented to media.
For another experiment, the system named is U251 cells. As to the kind of experiment: Selenite toxicity / growth in KO cells. The procedure:
FIGS. 2A-D provide evidence that SEPHS2 plays a detoxifying role in U251 GBM cell line. (A) Knockdown of either SEPHS2 or SEPSECS can block selenoprotein expression. (B) However, only SEPHS2 KO has significant toxicity. (C) Model for ‘pushing’ toxicity in which if SEPHS2 plays a detoxifying role, its KO should synergize with increased selenited input. (D) Synergy is indeed seen with 12 uM selenite treatment in conjunction with SEPHS2 KO. Growth is normalized to the already lower growth rate of the SEPHS2 KO cells, thus the bars in asterisks indicate (statistically significant) synergy.
We had classified SEPHS2 as a putative detoxifier as its substrate, selenide, is the most toxic form of selenium^12. The notion of SEPHS2 as a detoxifier has not 1 0 previously been explored, and SEPHS2 is simply known for its enzymatic role (which cannot be replaced by its isoform, SEPHS1^13) as an intermediate step in producing selenocysteine for selenocysteinyl-tRNA production. The selenocysteine producing pathway is a simple and linear pathway starting from dietary selenite—or selenite or other inorganic forms which can be converted to selenite, selenite being the most common form^14,15. Selenite is imported and converted through in an unclear manner to form selenide, which is then metabolized by SEPHS2 to form selenophosphate, accompanied by ATP hydrolysis. […]

For `[SeH2]` [hydrogen selenide gas, hydrogen selenide], in experiment [1], the “Viability of SEPHS2 KO cells relative to control KO cells under hydrogen selenide gas” value is on record as “hypersensitive”.
Regarding `O=[Se](O)O` [selenite], in the experiment with GPX4 and SEPHS2, the “Expression of selenoproteins GPX4 and SEPHS2” value was “increased expression”. Besides, the “Growth with selenite in conjunction with SEPHS2 KO” value with U251 cells (12 uM selenite, U251, growth normalized to SEPHS2 KO cells) is “Synergy”. In the experiment on U251 cells (12 μM selenite, U251 cells, both guides against SLC7A11), the “Toxicity of high-dose selenite in SLC7A11 KO cells” value is “complete rescue”.
